Here are results for three molecules from PubChem BioAssay (NCI).

Among the test systems are NCI-H460 lung; ACHN renal; HS 578T breast; UACC-257 melanoma; HOP-62 NSCLC; HCT-15 colon; MDA-MB-435; LOX IMVI melanoma; MDA-MB-231 breast; RPMI-8226 leukemia.
Experiment in all cases: NCI-60 cell line screen, 48 h

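A five-concentration, 48-hour dose response in 96-well plates underlies each endpoint, interpolated linearly between surrounding concentrations. GI50 marks 50% less growth. TGI: total growth inhibition.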

For the molecule `COc1ccccc1CNCCCN1C(=O)c2ccc3c4c(ccc(c24)C1=O)C(=O)N(CCCNCCCCNCCCN)C3=O`, the GI50 in the assay with NCI-H460 lung was 0.36 µM; in the assay on ACHN renal, 0.747 µM; in the assay with HS 578T breast, 1.34 µM; in the assay with UACC-257 melanoma, 0.176 µM; in the assay on HOP-62 NSCLC it was 0.658 µM; in the assay on HCT-15 colon, 1.75 µM. Moreover, the GI50 in the assay with MDA-MB-435 is 0.213 µM; with LOX IMVI melanoma, 0.3 µM; in the assay on MDA-MB-231 breast, 0.431 µM; in the assay on RPMI-8226 leukemia, 0.626 µM. The TGI came to 1.5 µM in the assay with NCI-H460 lung; 4.44 µM in the assay on ACHN renal; 5.49 µM in the assay on HS 578T breast; 0.33 µM in the assay on UACC-257 melanoma; 2.25 µM in the assay with HOP-62 NSCLC; 5.73 µM in the assay on HCT-15 colon. Besides, the TGI came out at 0.494 µM with MDA-MB-435, 1.57 µM in the assay with LOX IMVI melanoma, 10.5 µM with MDA-MB-231 breast and 10.8 µM in the assay on RPMI-8226 leukemia.
Regarding `Cc1nc2ccc(-n3ncc(C(=O)c4cc5ccccc5[nH]4)c3N)cc2[nH]1`, the GI50 with NCI-H460 lung was 2.39 µM; in the assay on ACHN renal it was 5.73 µM; with HS 578T breast, 10.5 µM; in the assay with UACC-257 melanoma, 26.6 µM; in the assay with HOP-62 NSCLC, 4.9 µM; in the assay on HCT-15 colon, 0.884 µM. In addition, the GI50 is 14.5 µM in the assay on MDA-MB-435, 2.57 µM with LOX IMVI melanoma, 10.6 µM with MDA-MB-231 breast and 8.1 µM in the assay on RPMI-8226 leukemia. Further, the TGI with NCI-H460 lung was 40.6 µM; with ACHN renal, greater than 100 µM; in the assay with HS 578T breast it was greater than 100 µM; in the assay with UACC-257 melanoma, greater than 100 µM; in the assay on HOP-62 NSCLC it was 51.6 µM; in the assay with HCT-15 colon it was 36.6 µM. Also, the TGI was greater than 100 µM in the assay with MDA-MB-435, 15.2 µM with LOX IMVI melanoma, 40.7 µM in the assay with MDA-MB-231 breast and 54.7 µM with RPMI-8226 leukemia.
For `COc1cc(/C=C2\CCC/C(=C\c3cc(CN4CCCC4)c(O)c(OC)c3)C2=O)cc(CN2CCCC2)c1O`, the GI50 with NCI-H460 lung is 2.97 µM; in the assay on ACHN renal it was 1.71 µM; in the assay with HS 578T breast it was 5.75 µM; in the assay on UACC-257 melanoma it was 5.29 µM; in the assay on HOP-62 NSCLC it was 2.93 µM; in the assay with HCT-15 colon it was 2.34 µM. For the same molecule, the GI50 is 2.75 µM in the assay on MDA-MB-435, 1.74 µM with LOX IMVI melanoma, 3.81 µM with MDA-MB-231 breast and 2.16 µM in the assay with RPMI-8226 leukemia. Besides, the TGI was found to be 10.6 µM with NCI-H460 lung; 3.43 µM in the assay with ACHN renal; 50.9 µM with HS 578T breast; 19.6 µM in the assay with UACC-257 melanoma; 9.35 µM in the assay with HOP-62 NSCLC; 7.87 µM with HCT-15 colon. For the same molecule, the TGI with MDA-MB-435 came to 7.46 µM; in the assay with LOX IMVI melanoma, 3.36 µM; with MDA-MB-231 breast, 12.8 µM; in the assay on RPMI-8226 leukemia, 7.58 µM.
